For this test, the system named is HCT116. The settings on record: 72 h. The gist of the method: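 Four-parameter Hill fits gave IC50 and maximal efficacy. The data were CellTiter-Glo luminescence readings in HCT116 cells, normalized so that vehicle was 0% and positive control was -100%, with pattern correction afterwards.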

These results are taken from the supplement of paper PMC12137928.

Molecules are shown by their SMILES. Structures can show the parent of a compound that is named as a salt.

Turning to `CC(C(=O)O)c1ccc2c(c1)CC(=O)c1ccccc1S2` (configuration not stated) [Zaltoprofen], the IC50 cell viability is more than 45.8 µM (ICRF193 0 nM) and more than 45.8 µM (ICRF193 200 nM).
`CC(C)=CCC/C(C)=C/CC/C(C)=C/CCC(=O)OC/C=C(\C)CCC=C(C)C` [Gefarnate]: the IC50 cell viability was more than 45.8 µM (ICRF193 0 nM) and more than 45.8 µM (ICRF193 200 nM).
For `C/C(=C(\CCO)SS/C(CCO)=C(/C)N(C=O)Cc1cnc(C)nc1N)N(C=O)Cc1cnc(C)nc1N` [Thiamine disulfide], the IC50 cell viability is, setting by setting: (ICRF193 0 nM) more than 45.8 µM; (ICRF193 200 nM) more than 45.8 µM.
In the case of `CCCCCCCCC(=O)NCc1ccc(O)c(OC)c1` [Nonivamide], the IC50 cell viability by setting is: (ICRF193 0 nM) more than 45.8 µM; (ICRF193 200 nM) more than 45.8 µM.
Turning to `CN1C(=O)CC(c2ccccc2)C1=O` (configuration not stated) [Phensuximide], the IC50 cell viability is more than 45.8 µM (ICRF193 0 nM) and more than 45.8 µM (ICRF193 200 nM).
`Cn1nnnc1SCC1=C(C(=O)O)N2C(=O)[C@@H](NC(=O)[C@H](O)c3ccccc3)[C@H]2SC1` [CEFAMANDOLE SODIUM]: the IC50 cell viability is more than 45.8 µM (ICRF193 0 nM) and more than 45.8 µM (ICRF193 200 nM).
In turn, `Cc1ccc(/C(=C\CN2CCCC2)c2cccc(/C=C/C(=O)O)n2)cc1` [Acrivastine] gave an IC50 cell viability (ICRF193 0 nM) of more than 45.8 µM and an IC50 cell viability (ICRF193 200 nM) of more than 45.8 µM.
Consider `CS(=O)(=O)c1ccc(C(=O)Nc2ccc(Cl)c(-c3ccccn3)c2)c(Cl)c1` [Vismodegib], for which the IC50 cell viability was more than 45.8 µM (ICRF193 0 nM) and more than 45.8 µM (ICRF193 200 nM).
Consider `CC(=O)SC[C@@H](C)C(=O)N1CCC[C@H]1C(=O)N[C@@H](Cc1ccccc1)C(=O)O` [Alacepril], for which the IC50 cell viability (ICRF193 0 nM) is more than 45.8 µM and the IC50 cell viability (ICRF193 200 nM) is more than 45.8 µM.
For the compound `CN1CC(O)C2=C/C(=N/NC(N)=O)C(=O)C=C21` (configuration not stated) [Adrenochrome semicarbazone], the IC50 cell viability by setting is: (ICRF193 0 nM) more than 45.8 µM; (ICRF193 200 nM) more than 45.8 µM.
For the compound `CCCOc1ccc(C(=O)OCCN(CC)CC)cc1N` [Proparacaine], the IC50 cell viability by setting is: (ICRF193 0 nM) more than 45.8 µM; (ICRF193 200 nM) more than 45.8 µM.
On to `CC(O)(CS(=O)(=O)c1ccc(F)cc1)C(=O)Nc1ccc(C#N)c(C(F)(F)F)c1` (configuration not stated) [BICALUTAMIDE], for which the IC50 cell viability is, setting by setting: (ICRF193 0 nM) more than 45.8 µM; (ICRF193 200 nM) more than 45.8 µM.
For `CCCCCOC(=O)Nc1nc(=O)n([C@@H]2O[C@H](C)[C@@H](O)[C@H]2O)cc1F` [Capecitabine], the IC50 cell viability runs as follows: (ICRF193 0 nM) more than 45.8 µM; (ICRF193 200 nM) more than 45.8 µM.
The compound `OCCOCCN1CCN(C(c2ccccc2)c2ccc(Cl)cc2)CC1` (configuration not stated) [Hydroxyzine] registered an IC50 cell viability (ICRF193 0 nM) of more than 45.8 µM and an IC50 cell viability (ICRF193 200 nM) of more than 45.8 µM.
On to `C=Cc1c(C)c2cc3nc(c(CC(=O)N[C@@H](CC(=O)O)C(=O)O)c4[nH]c(cc5nc(cc1[nH]2)C(C)=C5CC)c(C)c4C(=O)O)[C@@H](CCC(=O)O)[C@@H]3C` [Talaporfin sodium], for which the IC50 cell viability reads like this: (ICRF193 0 nM) more than 45.8 µM; (ICRF193 200 nM) more than 45.8 µM.
Turning to `C[C@H]1[C@H](NC(=O)/C(=N\OC(C)(C)C(=O)O)c2csc(N)n2)C(=O)N1S(=O)(=O)O` [Aztreonam], the IC50 cell viability runs as follows: (ICRF193 0 nM) more than 45.8 µM; (ICRF193 200 nM) more than 45.8 µM.
As to `C[C@H]1COc2c(C3(N)CC3)c(F)cc3c(=O)c(C(=O)O)cn1c23` [Pazufloxacin], the IC50 cell viability is more than 45.8 µM (ICRF193 0 nM) and more than 45.8 µM (ICRF193 200 nM).
`CN(C)[C@@H]1C(O)=C(C(N)=O)C(=O)[C@@]2(O)C(O)=C3C(=O)c4c(O)cccc4[C@@](C)(O)[C@H]3[C@H](O)[C@@H]12` [Oxytetracycline] showed an IC50 cell viability (ICRF193 0 nM) of more than 45.8 µM and an IC50 cell viability (ICRF193 200 nM) of more than 45.8 µM.
For the compound `O=C(O)[C@@H](S)[C@H](S)C(=O)O` [(2R,3R)-2,3-Dimercaptosuccinic acid], the IC50 cell viability by setting is: (ICRF193 0 nM) more than 45.8 µM; (ICRF193 200 nM) more than 45.8 µM.
Take `O=Cc1ccccc1C=O` [1,2-Benzenedicarboxaldehyde]: the IC50 cell viability (ICRF193 0 nM) is more than 45.8 µM and the IC50 cell viability (ICRF193 200 nM) was more than 45.8 µM.
As to `CNC[C@@H]1CC[C@@H](N)[C@@H](O[C@H]2[C@H](O)[C@@H](O[C@H]3OC[C@](C)(O)[C@H](NC)[C@H]3O)[C@H](N)C[C@@H]2N)O1` [Micronomicin sulfate], the IC50 cell viability reads like this: (ICRF193 0 nM) more than 45.8 µM; (ICRF193 200 nM) more than 45.8 µM.
For the compound `CS(=O)(=O)c1ccc([C@H](O)[C@@H](COC(=O)CN)NC(=O)C(Cl)Cl)cc1` [Thiamphenicol glycinate], the IC50 cell viability runs as follows: (ICRF193 0 nM) more than 45.8 µM; (ICRF193 200 nM) more than 45.8 µM.
Consider `COCCOC(=O)C1=C(C)NC(C)=C(C(=O)OC(C)C)C1c1cccc([N+](=O)[O-])c1` (configuration not stated) [Nimodipine], for which the IC50 cell viability by setting is: (ICRF193 0 nM) more than 45.8 µM; (ICRF193 200 nM) more than 45.8 µM.
For the compound `CN(C)CCOC(=O)C(c1ccccc1)C1(O)CCCC1` (configuration not stated) [Cyclopentolate hydrochloride], the IC50 cell viability is, setting by setting: (ICRF193 0 nM) more than 45.8 µM; (ICRF193 200 nM) more than 45.8 µM.
For the compound `CCC(=O)O[C@]1(C(=O)COC(C)=O)CC[C@H]2[C@@H]3CCC4=CC(=O)CC[C@]4(C)[C@H]3[C@@H](O)C[C@@]21C` [HYDROCORTISONE ACEPONATE], the IC50 cell viability by setting is: (ICRF193 0 nM) more than 45.8 µM; (ICRF193 200 nM) more than 45.8 µM.
For the compound `CCCCCCCCCCCCCCCC(=O)O[C@@H]1[C@@H](O)[C@@H](O)[C@@H]([C@H](NC(=O)[C@@H]2C[C@@H](CCC)CN2C)[C@H](C)Cl)O[C@@H]1SC` [Clindamycin palmitate HCl], the IC50 cell viability (ICRF193 0 nM) was more than 45.8 µM and the IC50 cell viability (ICRF193 200 nM) is more than 45.8 µM.
